According to PubChem BioAssay AID248 (DTP/NCI, 2004):
“And” between values parts separate entries of the source, which are not always exact repeats. Equal entries are not always repeated. Toxic doses and inconclusive results are not listed.

System: L1210 leukemia ip in BDF1 mice, survival T/C
Test: NCI In Vivo Anticancer Drug Screen. Data for tumor model L1210 Leukemia (intraperitoneal) in B6D2F1 (BDF1) mice
Conditions: endpoint: mean survival time, higher = longer survival
Procedure, shortened: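 Tumor cells were implanted, animals were treated, and survival was followed. The result divides the treated measurement by the vehicle-control measurement.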

[1] = dose: 5.0 mg/kg/injection, schedule: Q01DX001 (ip), vehicle: saline
[2] = dose: 10.0 mg/kg/injection, schedule: Q01DX001 (ip), vehicle: saline
[3] = dose: 20.0 mg/kg/injection, schedule: Q01DX001 (ip), vehicle: saline
[4] = dose: 40.0 mg/kg/injection, schedule: Q01DX001 (ip), vehicle: saline
[5] = dose: 80.0 mg/kg/injection, schedule: Q01DX001 (ip), vehicle: saline
[6] = dose: 100.0 mg/kg/injection, schedule: Q04DX003 (ip), vehicle: saline
[7] = dose: 200.0 mg/kg/injection, schedule: Q04DX003 (ip), vehicle: saline
[8] = dose: 400.0 mg/kg/injection, schedule: Q04DX003 (ip), vehicle: saline
[9] = dose: 100.0 mg/kg/injection, schedule: Q01DX009 (ip), vehicle: Klucel (hydroxypropylcellulose) (HPC)
[10] = dose: 100.0 mg/kg/injection, schedule: Q04DX003 (ip), vehicle: Klucel (hydroxypropylcellulose) (HPC)
[11] = dose: 200.0 mg/kg/injection, schedule: Q01DX009 (ip), vehicle: Klucel (hydroxypropylcellulose) (HPC)
[12] = dose: 200.0 mg/kg/injection, schedule: Q04DX003 (ip), vehicle: Klucel (hydroxypropylcellulose) (HPC)
[13] = dose: 400.0 mg/kg/injection, schedule: Q01DX009 (ip), vehicle: Klucel (hydroxypropylcellulose) (HPC)
[14] = dose: 400.0 mg/kg/injection, schedule: Q04DX003 (ip), vehicle: Klucel (hydroxypropylcellulose) (HPC)
[15] = dose: 50.0 mg/kg/injection, schedule: Q01DX009 (ip), vehicle: Klucel (hydroxypropylcellulose) (HPC)
[16] = dose: 100.0 mg/kg/injection, schedule: Q04DX002 (ip), vehicle: Klucel (hydroxypropylcellulose) (HPC)
[17] = dose: 200.0 mg/kg/injection, schedule: Q04DX002 (ip), vehicle: Klucel (hydroxypropylcellulose) (HPC)
[18] = dose: 400.0 mg/kg/injection, schedule: Q04DX002 (ip), vehicle: Klucel (hydroxypropylcellulose) (HPC)

CC1([CH2][Hg][I])CS(=O)(=O)CC(C)([CH2][Hg][I])O1 (stereo not drawn)
T/C [1]: 104 % of control | T/C (dose: 5.0 mg/kg/injection, schedule: Q01DX015 (ip), vehicle: saline): 94 % of control | T/C [2]: 104 % of control | T/C (dose: 10.0 mg/kg/injection, schedule: Q01DX015 (ip), vehicle: saline): 97 % of control | T/C [3]: 96 % of control | T/C (dose: 20.0 mg/kg/injection, schedule: Q01DX015 (ip), vehicle: saline): 102 % of control | T/C [4]: 98 % of control | T/C (dose: 40.0 mg/kg/injection, schedule: Q01DX015 (ip), vehicle: saline): 108 % of control | T/C [5]: 104 % of control

CC12C(=O)OC(=O)C1C1C=CC2CC1 (stereo not drawn)
T/C (dose: 100.0 mg/kg/injection, schedule: Q04DX003 (ip), vehicle: saline with Tween-80): 101 % of control | T/C (dose: 200.0 mg/kg/injection, schedule: Q04DX003 (ip), vehicle: saline with Tween-80): 98 % of control | T/C (dose: 400.0 mg/kg/injection, schedule: Q04DX003 (ip), vehicle: saline with Tween-80): 101 % of control

CCC(=O)C(CC)c1ccccc1OC (stereo not drawn)
T/C (dose: 100.0 mg/kg/injection, schedule: Q01DX009 (ip), vehicle: saline with Tween-80): 95 % of control | T/C [6]: 94 % of control | T/C (dose: 200.0 mg/kg/injection, schedule: Q01DX009 (ip), vehicle: saline with Tween-80): 95 % of control | T/C [7]: 97 % of control | T/C (dose: 400.0 mg/kg/injection, schedule: Q01DX009 (ip), vehicle: saline with Tween-80): 108 % of control | T/C [8]: 97 % of control

Brc1cscc1Cc1cscc1Br
T/C (dose: 100.0 mg/kg/injection, schedule: Q01DX001 (ip), vehicle: saline with Tween-80): 91 % of control | T/C (dose: 200.0 mg/kg/injection, schedule: Q01DX001 (ip), vehicle: saline with Tween-80): 97 % of control | T/C (dose: 400.0 mg/kg/injection, schedule: Q01DX001 (ip), vehicle: saline with Tween-80): 94 % of control

O=C(NCC(O)CNC(=O)Nc1ccc(C2=NCCN2)cc1)Nc1ccc(C2=NCCN2)cc1
T/C (dose: 3.75 mg/kg/injection, schedule: Q01DX Z (ip), vehicle: carboxymethylcellulose (CMC)): 97 % of control | T/C (dose: 15.0 mg/kg/injection, schedule: Q01DX Z (ip), vehicle: carboxymethylcellulose (CMC)): 244 % of control | T/C (dose: 21.0 mg/kg/injection, schedule: Q01DX Z (ip), vehicle: carboxymethylcellulose (CMC)): 216 % of control | T/C (dose: 30.0 mg/kg/injection, schedule: Q01DX Z (ip), vehicle: carboxymethylcellulose (CMC)): 164 % of control | T/C (dose: 62.0 mg/kg/injection, schedule: Q01DX Z (oral), vehicle: carboxymethylcellulose (CMC)): 110 % of control | T/C (dose: 84.0 mg/kg/injection, schedule: Q01DX Z (ip), vehicle: carboxymethylcellulose (CMC)): 104 % of control | T/C (dose: 125.0 mg/kg/injection, schedule: Q01DX Z (oral), vehicle: carboxymethylcellulose (CMC)): 108 % of control | T/C (dose: 250.0 mg/kg/injection, schedule: Q01DX Z (oral), vehicle: carboxymethylcellulose (CMC)): 104 % of control | T/C (dose: 500.0 mg/kg/injection, schedule: Q01DX Z (oral), vehicle: carboxymethylcellulose (CMC)): 97 % of control

NC(=O)C[n+]1cccc(C(=O)Nc2ccccc2)c1
T/C [6]: 97 % of control | T/C [7]: 101 % of control | T/C [8]: 87 % of control

COc1ccccc1-n1c(=O)c(N=Nc2ccc(Br)cc2)c(O)n(-c2ccccc2C)c1=S
T/C (dose: 100.0 mg/kg/injection, schedule: Q01DX001 (ip), vehicle: Klucel (hydroxypropylcellulose) (HPC)): 109 % of control | T/C (dose: 200.0 mg/kg/injection, schedule: Q01DX001 (ip), vehicle: Klucel (hydroxypropylcellulose) (HPC)): 98 % of control | T/C (dose: 400.0 mg/kg/injection, schedule: Q01DX001 (ip), vehicle: Klucel (hydroxypropylcellulose) (HPC)): 98 % of control

Clc1ccc(/C(=[C](\[Hg]/[C](=C(\c2ccccc2)c2ccc(Cl)cc2)c2ccccc2)c2ccccc2)c2ccccc2)cc1
T/C [9]: 96 % of control | T/C [10]: 101 % of control | T/C [11]: 102 % of control | T/C [12]: 107 % of control | T/C [13]: 96 % of control | T/C [14]: 102 % of control

CC(=O)OC1CCC(CC2CCCCC2)CC1 (stereo not drawn)
T/C [15]: 94 % of control | T/C [9]: 100 % of control | T/C [11]: 100 % of control | T/C [13]: 93 % of control

CCOC(=O)c1ccc(Nc2sc(C(=O)c3ccccc3)c(N)c2C#N)cc1
T/C (dose: 100.0 mg/kg/injection, schedule: Q04DX002 (ip), vehicle: saline with Tween-80): 120 % of control | T/C (dose: 200.0 mg/kg/injection, schedule: Q04DX002 (ip), vehicle: saline with Tween-80): 92 % of control | T/C (dose: 400.0 mg/kg/injection, schedule: Q04DX002 (ip), vehicle: saline with Tween-80): 89 % of control

[N-]=[N+]=Nc1cccc[n+]1[O-]
T/C [10]: 105 % of control | T/C [12]: 109 % of control | T/C [14]: 105 % of control

c1cc[c]([Pb]([c]2ccccc2)([c]2ccccc2)[c]2ccccc2)cc1
T/C (dose: 50.0 mg/kg/injection, schedule: Q04DX002 (ip), vehicle: Klucel (hydroxypropylcellulose) (HPC)): 103 % of control | T/C [16]: 103 % of control | T/C [17]: 113 % of control and 115 % of control | T/C [18]: 101 % of control

CC(C)N1C(=O)NC(=O)C12CCN(Cc1ccccc1)CC2
T/C (dose: 100.0 mg/kg/injection, schedule: Q01DX001 (ip), vehicle: carboxymethylcellulose (CMC)): 101 % of control | T/C (dose: 200.0 mg/kg/injection, schedule: Q01DX001 (ip), vehicle: carboxymethylcellulose (CMC)): 98 % of control | T/C (dose: 400.0 mg/kg/injection, schedule: Q01DX001 (ip), vehicle: carboxymethylcellulose (CMC)): 95 % of control

CO/N=C(/CSS(=O)(=O)O)c1ccccc1
T/C [16]: 96 % of control | T/C [17]: 96 % of control | T/C [18]: 96 % of control

CCCCCCCCCCCCCCCCCCNC(=O)NCCc1ccccc1
T/C [16]: 105 % of control | T/C [17]: 99 % of control | T/C [18]: 92 % of control

COc1ccc([N+](=O)[O-])cc1NC(=O)Oc1ccc(F)cc1
T/C [15]: 100 % of control | T/C [9]: 92 % of control | T/C [11]: 96 % of control

Cc1csc[n+]1Cc1ccc([N+](=O)[O-])cc1
T/C [1]: 100 % of control | T/C [2]: 102 % of control | T/C [3]: 102 % of control | T/C [4]: 103 % of control | T/C [5]: 100 % of control | T/C (dose: 100.0 mg/kg/injection, schedule: Q01DX001 (ip), vehicle: saline): 98 % of control

COc1cc(C2=N/C(=C\c3cc(Cl)cc(Cl)c3O)C(=O)O2)cc(OC)c1OC
T/C [16]: 107 % of control | T/C [17]: 110 % of control | T/C [18]: 100 % of control

CCC/C(C)=N/Nc1ccccn1
T/C (dose: 12.5 mg/kg/injection, schedule: Q01DX009 (ip), vehicle: Klucel (hydroxypropylcellulose) (HPC)): 97 % of control | T/C (dose: 25.0 mg/kg/injection, schedule: Q01DX009 (ip), vehicle: Klucel (hydroxypropylcellulose) (HPC)): 94 % of control | T/C (dose: 25.0 mg/kg/injection, schedule: Q01DX009 (ip), vehicle: acetone): 106 % of control | T/C [15]: 102 % of control | T/C (dose: 50.0 mg/kg/injection, schedule: Q01DX009 (ip), vehicle: acetone): 87 % of control | T/C (dose: 50.0 mg/kg/injection, schedule: Q04DX003 (ip), vehicle: acetone): 103 % of control | T/C (dose: 100.0 mg/kg/injection, schedule: Q01DX001 (ip), vehicle: acetone): 98 % of control | T/C [9]: 102 % of control | T/C (dose: 100.0 mg/kg/injection, schedule: Q04DX003 (ip), vehicle: acetone): 97 % of control | T/C (dose: 200.0 mg/kg/injection, schedule: Q01DX001 (ip), vehicle: acetone): 103 % of control

CCn1cnc2c(SC)ncnc21
T/C (dose: 75.0 mg/kg/injection, schedule: Q01DX001 (ip), vehicle: acetone): 101 % of control | T/C (dose: 150.0 mg/kg/injection, schedule: Q01DX001 (ip), vehicle: acetone): 106 % of control | T/C (dose: 300.0 mg/kg/injection, schedule: Q01DX001 (ip), vehicle: acetone): 108 % of control

CN(C)c1cc2c3ccccc3ccc2c2ccccc12
T/C (dose: 100.0 mg/kg/injection, schedule: Q01DX001 (ip), vehicle: olive oil, sesame oil, peanut oil): 100 % of control | T/C (dose: 200.0 mg/kg/injection, schedule: Q01DX001 (ip), vehicle: olive oil, sesame oil, peanut oil): 103 % of control | T/C (dose: 400.0 mg/kg/injection, schedule: Q01DX001 (ip), vehicle: olive oil, sesame oil, peanut oil): 102 % of control
